From ChEMBL document CHEMBL5523757, “Discovery, Synthesis, and Activity Evaluation of Novel Five-Membered Sulfur-Containing Heterocyclic Nucleosides as Potential Anticancer Agents In Vitro and In Vivo” (J Med Chem, 2024)

What was measured:
Assay type in all cases: functional, cell-based
MCF7 = assay: Antiproliferative activity against human MCF7 cells assessed as inhibition of cell growth incubated for 48 hrs by CCK-8 assay
HeLa = assay: Antiproliferative activity against human HeLa cells assessed as inhibition of cell growth incubated for 48 hrs by CCK-8 assay
HCT-116 = assay: Antiproliferative activity against human HCT-116 cells assessed as inhibition of cell growth incubated for 48 hrs by CCK-8 assay
HepG2 = assay: Antiproliferative activity against human HepG2 cells assessed as inhibition of cell growth incubated for 48 hrs by CCK-8 assay
PANC-1 = assay: Antiproliferative activity against human PANC-1 cells assessed as inhibition of cell growth incubated for 48 hrs by CCK-8 assay
A549 = assay: Antiproliferative activity against human A549 cells assessed as inhibition of cell growth incubated for 48 hrs by CCK-8 assay

Compound | IC50 (MCF7; Homo sapiens, MCF7, 48 h) | IC50 (HeLa; Homo sapiens, HeLa, 48 h) | IC50 (HCT-116; Homo sapiens, HCT-116, 48 h) | other results
CCOC(=O)C[C@H]1CSC[C@]1(C(=O)OCC)n1cnc2c(N3CCCC3)ncnc21 (racemic) | > 50 µM | > 50 µM | > 50 µM | 
CCOC(=O)C[C@@H]1CSC[C@]1(C(=O)OCC)n1cnc2c(N3CCCC3)ncnc21 (racemic) | > 50 µM | > 50 µM | > 50 µM | 
CCOC(=O)C[C@@H]1CSC[C@]1(C(=O)OCC)n1cnc2c(N(C)C)ncnc21 (racemic) | > 50 µM | > 50 µM | > 50 µM | 
CCOC(=O)C[C@H]1CSC[C@]1(C(=O)OCC)n1cnc2cncnc21 (racemic) | > 50 µM | > 50 µM | > 50 µM | 
CCOC(=O)C[C@H]1CSC[C@]1(C(=O)OCC)n1cnc2c(Br)ncnc21 (racemic) | 19.4 µM | 14.4 µM | 30.1 µM | 
CCOC(=O)C[C@H]1CSC[C@]1(C(=O)OCC)n1cnc2c(N(CC)CC)ncnc21 (racemic) | > 50 µM | > 50 µM | > 50 µM | 
CCOC(=O)C[C@@H]1CSC[C@]1(C(=O)OC(C)C)n1cnc2c(Cl)ncnc21 (racemic) | 44.8 µM | 13.6 µM | 38.2 µM | 
CCOC(=O)C[C@H]1CSC[C@]1(C(=O)OCC)n1cnc2c(OCC)ncnc21 (racemic) | > 50 µM | > 50 µM | > 50 µM | 
CCOC(=O)C[C@H]1CSC[C@]1(C(=O)OCC)n1cnc2c(N(C)C)ncnc21 (racemic) | > 50 µM | > 50 µM | > 50 µM | 
CCOC(=O)C[C@@H]1CSC[C@]1(C(=O)OCC)n1cnc2c(OCc3ccccc3)ncnc21 (racemic) | > 50 µM | > 50 µM | > 50 µM | 
CCOC(=O)C[C@H]1CSC[C@]1(C(=O)OCC)n1cnc2c(N3CCOCC3)ncnc21 (racemic) | > 50 µM | > 50 µM | > 50 µM | 
CCOC(=O)C[C@@H]1CSC[C@]1(C(=O)OCC)n1cnc2c(N3CCCC3)nc(Cl)nc21 (racemic) | > 50 µM | 38.3 µM | 34 µM | 
O=c1[nH]cc(F)c(=O)[nH]1 [FLUOROURACIL] | 11.6 µM | 9.75 µM | 8.75 µM | IC50 (HepG2; Homo sapiens, HepG2, 48 h): 12.9 µM; IC50 (PANC-1; Homo sapiens, PANC-1, 48 h): 44.1 µM
CCCSc1ncnc2c1ncn2[C@@]1(C(=O)OCC)CSC[C@@H]1CC(=O)OCC (racemic) | 30.9 µM | 37.2 µM | 25.9 µM | 
CCOC(=O)C[C@@H]1CSC[C@]1(C(=O)OCC)n1cnc2c(OC)ncnc21 (racemic) | > 50 µM | > 50 µM | > 50 µM | 
CCOC(=O)C[C@@H]1CSC[C@]1(C(=O)OCC)n1cnc2c(N3CCCCC3)nc(Cl)nc21 (racemic) | 34 µM | > 50 µM | > 50 µM | 
CCCSc1ncnc2c1ncn2[C@@]1(C(=O)OCC)CSC[C@H]1CC(=O)OCC (racemic) | 23.5 µM | > 50 µM | 38.5 µM | 
CCOC(=O)C[C@@H]1CSC[C@]1(C(=O)OCC)n1cnc2c(-c3ccccc3)ncnc21 (racemic) | 19.4 µM | 42.9 µM | 25.1 µM | 
CCOC(=O)C[C@H]1CSC[C@]1(C(=O)OCC)n1cnc2cnc(Cl)nc21 (racemic) | > 50 µM | > 50 µM | > 50 µM | 
CCOC(=O)C[C@@H]1CSC[C@]1(C(=O)OCC)n1cnc2c(N3CCCCC3)ncnc21 (racemic) | 42.2 µM | > 50 µM | 32 µM | 
CCOC(=O)C[C@H]1CS(=O)(=O)C[C@]1(C(=O)OCC)n1cnc2c(Cl)nc(Cl)nc21 | 16.2 µM | 7.67 µM | 11.2 µM | 
CCOC(=O)C[C@H]1CSC[C@]1(C(=O)OC)n1cnc2c(Cl)ncnc21 (racemic) | > 50 µM | 11.6 µM | 19.2 µM | 

Compound | IC50 (MCF7; Homo sapiens, MCF7, 48 h) | IC50 (HeLa; Homo sapiens, HeLa, 48 h) | IC50 (HCT-116; Homo sapiens, HCT-116, 48 h) | other results
CCOC(=O)C[C@H]1CSC[C@]1(C(=O)OCC)n1cnc2c(Cl)nc(F)nc21 (racemic) | 22.9 µM | 8.8 µM | 11 µM | 
CCOC(=O)C[C@@H]1CSC[C@]1(C(=O)OCC)n1cnc2c(N(CC)CC)ncnc21 (racemic) | > 50 µM | > 50 µM | 41.5 µM | 
CCOC(=O)C[C@H]1CSC[C@]1(C(=O)OCC)n1cnc2c(N3CCCCC3)nc(Cl)nc21 (racemic) | > 50 µM | 22.4 µM | 22.6 µM | 
CCOC(=O)C[C@H]1CSC[C@]1(C(=O)OCC)n1cnc2c(OCc3ccccc3)ncnc21 (racemic) | 12.7 µM | 13.7 µM | 13.2 µM | 
CCOC(=O)C[C@H]1CSC[C@]1(C(=O)OCC)n1cnc2c(Cl)ncnc21 (racemic) | 12 µM | 6.81 µM | 15.5 µM | 
CCOC(=O)C[C@@H]1CSC[C@]1(C(=O)OCC)n1cnc2cncnc21 (racemic) | > 50 µM | > 50 µM | > 50 µM | 
CCOC(=O)C[C@@H]1CSC[C@@]1(C(=O)OCC)n1cnc2c(Cl)nc(Cl)nc21 | 4.54 µM | 2.78 µM | 3.69 µM | IC50 (HepG2; Homo sapiens, HepG2, 48 h): 23.8 µM; IC50 (A549; Homo sapiens, A549, 48 h): 41.4 µM; IC50 (PANC-1; Homo sapiens, PANC-1, 48 h): 11.1 µM
CCOC(=O)C[C@H]1CSC[C@]1(C(=O)OC(C)C)n1cnc2c(Cl)ncnc21 (racemic) | 13 µM | 9.99 µM | 14.7 µM | 
CCOC(=O)C[C@@H]1CSC[C@]1(C(=O)OCC)n1cnc2c(Br)ncnc21 (racemic) | > 50 µM | 49.6 µM | > 50 µM | 
CCOC(=O)C[C@H]1CSC[C@]1(C(=O)OCC)n1cnc2c(-c3ccccc3)ncnc21 (racemic) | > 50 µM | 26.2 µM | 17.3 µM | 
CCOC(=O)C[C@H]1CSC[C@]1(C(=O)OCC)n1cnc2c(N3CCCCC3)ncnc21 (racemic) | 23.8 µM | > 50 µM | 22.8 µM | 
CCOC(=O)C[C@H]1C[S+]([O-])C[C@]1(C(=O)OCC)n1cnc2c(Cl)nc(Cl)nc21 (stereo not given in full) | 25.9 µM | 10.5 µM | 17.1 µM | 
CCOC(=O)C[C@@H]1CSC[C@]1(C(=O)OCC)n1cnc2c(Cl)ncnc21 (racemic) | 43.5 µM | 12.5 µM | 19.4 µM | 
CCOC(=O)C[C@H]1CSC[C@]1(C(=O)OCC)n1cnc2c(N3CCCC3)nc(Cl)nc21 (racemic) | 38.3 µM | > 50 µM | 46.6 µM | 
CCOC(=O)C[C@@H]1CSC[C@]1(C(=O)OC)n1cnc2c(Cl)ncnc21 (racemic) | > 50 µM | 12.5 µM | 31.8 µM | 
CCOC(=O)C[C@H]1CSC[C@]1(C(=O)OCC)n1cnc2c(Cl)nc(Cl)nc21 |  |  |  | IC50 (MCF7; mcf7): 5.82 µM; IC50 (HepG2; hepg2): > 50 µM; IC50 (A549; a549): > 50 µM; IC50 (HeLa; hela): 7.43 µM; IC50 (HCT-116; hct-116): 4.16 µM; IC50 (PANC-1; panc-1): 27.5 µM
CCOC(=O)C[C@@H]1CSC[C@]1(C(=O)OCC)n1cnc2c(N3CCOCC3)ncnc21 (racemic) | > 50 µM | > 50 µM | > 50 µM | 
CCOC(=O)C[C@H]1CSC[C@]1(C(=O)OCC)n1cnc2c(OC)ncnc21 (racemic) | > 50 µM | > 50 µM | > 50 µM | 
CCOC(=O)C[C@@H]1CSC[C@]1(C(=O)OCC)n1cnc2cnc(Cl)nc21 (racemic) | > 50 µM | > 50 µM | > 50 µM | 
CCOC(=O)C[C@@H]1CSC[C@]1(C(=O)OCC)n1cnc2c(Cl)nc(Cl)nc21 (racemic) | 4.06 µM | 9.5 µM | 6.89 µM | 
CCOC(=O)C[C@@H]1CSC[C@]1(C(=O)OCC)n1cnc2c(Cl)nc(F)nc21 (racemic) | 27.9 µM | 14.5 µM | 15.9 µM | 
CCOC(=O)C[C@@H]1CSC[C@]1(C(=O)OCC)n1cnc2c(OCC)ncnc21 (racemic) | > 50 µM | > 50 µM | 19.8 µM | 
